Source: patent US11690850B2, “Inhibitors of receptor interacting protein kinase I for the treatment of disease” (Board of Regents, The University of Texas System, priority 2019, dated 2023)

How the values were obtained:
[1] = target: RIPK1 (Homo sapiens (Human), UniProt Q13546); assay: ADP-Glo Kinase Assay; type: biochemical; details: 5 nM RIPK1 protein, 50 μM ATP, 6 hr reaction, average value across multiple runs
How it was run: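 ADP formed from ATP is measured by ADP-Glo luminescence with 5 nM RIPK1, preincubated 10 min with compound, then 50 μM ATP for 6 h. Buffer is 50 mM HEPES pH 7.5, 50 mM NaCl, 30 mM MgCl2, 1 mM DTT, 0.05% BSA, 0.02% CHAPS. IC50 comes from a four-parameter fit, averaged over runs.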

[2] = tested on: human monocytic cell line U937; assay: Human U937 Cellular Necroptosis Assay; type: cell-based; details: U-937; U937 cells stimulated with 25 ng/mL human TNFalpha and 25 μM z-VAD-FMK, 22 hr, viability by Cell Titer-Glo 2.0; average value across multiple runs; read-out: hU937 IC50
Experimental: Human U937 Cellular Necroptosis Assay
The human monocytic cell line U937 (CRL-1593.2) was purchased from ATCC. The cells were routinely maintained in RPMI-1640 Medium (Gibco, Catalog #11875-093) supplemented with 10% heat inactivated fetal bovine serum (Gibco, Catalog #16140-071), 100 units/mL penicillin and 100 μg/mL streptomycin (Gibco, Catalog #15140-122), in a humidified incubator (37° C., 5% CO2). For the assay, cells were resuspended in RPMI-1640 phenol red free Media (Gibco, Catalog #11835-030) supplemented with 10% fetal bovine serum (Sigma, Catalog #F2442), 100 units/mL penicillin and 100 ug/mL streptomycin. Cells were stimulated with 25 ng/mL human TNFalpha (Cell Sciences, Catalog #CSI15659B) and 25 μM z-VAD-FMK (R&D Systems, Catalog #FMK001) followed by seeding 5000 cells per well in a volume of 40 μL to a white, CulturPlate-384 (Perkin Elmer, Catalog #6007680). Stock solutions of the test compounds were prepared in 100% DMSO (Sigma, Catalog #D2650) and serially diluted 1:3 using 100% DMSO. Compounds were additionally diluted 1:40 in assay medium, and 10 μL/well was transferred to the plate. Following the compound addition the plate was incubated at 37° C. and 5% CO2 for 22 hr. After 22 hr, viability was assessed with the addition of 20 μL of Cell Titer-Glo 2.0 (Promega, Catalog #G9243). The tissue culture plate was shaken on an orbital shaker at 300 RPM for 15 minutes at room temperature in the dark. Luminescence was measured using a PerkinElmer Envision™ plate reader. IC50 values were calculated using a four-parameter logistic curve fit using Genedata Screener software. Results are shown below in Table 5, where the average value across multiple runs is given.

Sequence of RIPK1 (Q13546 1-327): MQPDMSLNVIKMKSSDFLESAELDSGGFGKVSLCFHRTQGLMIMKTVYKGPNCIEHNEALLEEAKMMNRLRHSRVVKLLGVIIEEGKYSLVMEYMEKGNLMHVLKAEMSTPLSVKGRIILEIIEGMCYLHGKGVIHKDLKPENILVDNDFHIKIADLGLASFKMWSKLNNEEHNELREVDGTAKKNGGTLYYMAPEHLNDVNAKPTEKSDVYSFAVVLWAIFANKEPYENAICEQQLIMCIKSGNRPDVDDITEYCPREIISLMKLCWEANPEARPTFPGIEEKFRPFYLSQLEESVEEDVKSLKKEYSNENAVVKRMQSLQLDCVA

IC50 [1] | Structure (SMILES) | IC50 [2]
0.048 µM | Cc1ccc(-n2nc(C(=O)N[C@H]3COc4cc(C#N)ccc4N(C)C3=O)c(=O)cc2C)cc1F [Example 62, (S)-N-(8-cyano-5-methyl-4-oxo-2,3,4,5-tetrahydrobenzo[b][1,4]oxazepin-3-yl)-1-(3-fluoro-4-methylphenyl)-6-methyl-4-oxo-1,4-dihydropyridazine-3-carboxamide] | 0.067 µM
0.032 µM | Cc1cc(=O)c(C(=O)Nc2cccc(Cl)c2F)nn1-c1ccccc1 [Example 1, N-(3-chloro-2-fluorophenyl)-6-methyl-4-oxo-1-phenyl-1,4-dihydropyridazine-3-carboxamide] | 0.136 µM
0.028 µM | Cc1c(Cl)c(=O)c(C(=O)NC2CCc3cc(Cl)ccc3N(C)C2=O)nn1-c1ccccc1 (stereo not shown) [Example 45, 5-Chloro-N-(7-chloro-1-methyl-2-oxo-2,3,4,5-tetrahydro-1H-benzo[b]azepin-3-yl)-6-methyl-4-oxo-1-phenyl-1,4-dihydropyridazine-3-carboxamide] | 0.072 µM
0.028 µM | Cc1cc(=O)c(C(=O)N[C@H]2COc3cccnc3N(C)C2=O)nn1-c1ccccc1 [Example 50, (S)-6-methyl-N-(5-methyl-4-oxo-2,3,4,5-tetrahydropyrido[3,2-b][1,4]oxazepin-3-yl)-4-oxo-1-phenyl-1,4-dihydropyridazine-3-carboxamide] | 0.033 µM
0.0302 µM | Cc1cc(=O)c(C(=O)NC2CCc3ccccc3NC2=O)nn1-c1ccc(Cl)cc1 (stereo not shown) [Example 66, 1-(4-chlorophenyl)-6-methyl-4-oxo-N-(2-oxo-2,3,4,5-tetrahydro-1H-benzo[b]azepin-3-yl)-1,4-dihydro-pyridazine-3-carboxamide] | 0.0804 µM
0.062 µM | Cc1c(Br)c(=O)c(C(=O)NC2CCc3cc(C#N)ccc3NC2=O)nn1-c1ccccc1 (stereo not shown) [Example 44, 5-Bromo-N-(7-cyano-2-oxo-2,3,4,5-tetrahydro-1H-benzo[b]azepin-3-yl)-6-methyl-4-oxo-1-phenyl-1,4-dihydropyridazine-3-carboxamide] | 0.16 µM
2.19 µM | Cc1cc(=O)c(C(=O)Nc2c3ccccc3nc3ccccc23)nn1-c1ccccc1 [Example 33, N-(acridin-9-yl)-6-methyl-4-oxo-1-phenyl-1,4-dihydropyridazine-3-carboxamide] | 8.49 µM
0.0578 µM | Cc1cc(=O)c(C(=O)NC2CCc3ccccc3NC2=O)nn1-c1cccc(Cl)c1 (stereo not shown) [Example 68, 1-(3-chlorophenyl)-6-methyl-4-oxo-N-(2-oxo-2,3,4,5-tetrahydro-1H-benzo[b]-azepin-3-yl)-1,4-dihydropyridazine-3-carboxamide] | 0.143 µM
0.023 µM | Cc1c(Br)c(=O)c(C(=O)NC2CCc3cc(Br)ccc3NC2=O)nn1-c1ccccc1 (stereo not shown) [Example 43, 5-Bromo-N-(7-bromo-2-oxo-2,3,4,5-tetrahydro-1H-benzo[b]azepin-3-yl)-6-methyl-4-oxo-1-phenyl-1,4-dihydropyridazine-3-carboxamide] | 0.048 µM
0.0849 µM | Cc1cc(=O)c(C(=O)N[C@H]2COc3cc(C#N)ccc3N(C)C2=O)nn1-c1ccc(C#N)cc1 [Example 60, (S)-N-(8-cyano-5-methyl-4-oxo-2,3,4,5-tetrahydrobenzo[b][1,4]oxazepin-3-yl)-1-(4-cyanophenyl)-6-methyl-4-oxo-1,4-dihydropyridazine-3-carboxamide] | 0.424 µM
0.668 µM | Cc1cccc(C2CC2)c1NC(=O)c1nn(-c2ccccc2)c(C)cc1=O [Example 26, N-(2-cyclopropyl-6-methylphenyl)-6-methyl-4-oxo-1-phenyl-1,4-dihydropyridazine-3-carboxamide] | 3.17 µM
0.018 µM | Cc1c(Cl)c(=O)c(C(=O)NC2CCc3ccccc3NC2=O)nn1-c1ccccc1 (stereo not shown) [Example 39, 5-Chloro-6-methyl-4-oxo-N-(2-oxo-2,3,4,5-tetrahydro-1H-benzo[b]azepin-3-yl)-1-phenyl-1,4-dihydropyridazine-3-carboxamide] | 0.069 µM
0.0289 µM | O=C(NC1CCc2ccccc2NC1=O)c1nn(-c2ccccc2)c2ccccc2c1=O (stereo not shown) [Example 70, 4-oxo-N-(2-oxo-2,3,4,5-tetrahydro-1H-benzo[b]azepin-3-yl)-1-phenyl-1,4-dihydrocinnoline-3-carboxamide] | 0.227 µM
0.051 µM | Cc1cc(=O)c(C(=O)NC2CCc3cc(F)cc(F)c3NC2=O)nn1-c1ccccc1 (stereo not shown) [Example 48, N-(7,9-difluoro-2-oxo-2,3,4,5-tetrahydro-1H-benzo[b]azepin-3-yl)-6-methyl-4-oxo-1-phenyl-1,4-dihydropyridazine-3-carboxamide] | 0.07 µM
0.652 µM | Cc1cc(=O)c(C(=O)NC2CCc3ccccc3NC2=O)nn1-c1cccc(C#N)c1 (stereo not shown) [Example 53, 1-(3-cyanophenyl)-6-methyl-4-oxo-N-(2-oxo-2,3,4,5-tetrahydro-1H-benzo[b]azepin-3-yl)-1,4-dihydropyridazine-3-carboxamide] | 0.591 µM
0.064 µM | Cc1cc(=O)c(C(=O)NC2CCc3cc(F)cc(F)c3N(C)C2=O)nn1-c1ccccc1 (stereo not shown) [Example 49, N-(7,9-difluoro-1-methyl-2-oxo-2,3,4,5-tetrahydro-1H-benzo[b]azepin-3-yl)-6-methyl-4-oxo-1-phenyl-1,4-dihydropyridazine-3-carboxamide] | 0.066 µM
2.25 µM | Cc1cc(=O)c(C(=O)Nc2cc(Cl)c3c(c2)NC(=O)C3)nn1-c1ccccc1 [Example 32, N-(4-chloro-2-oxoindolin-6-yl)-6-methyl-4-oxo-1-phenyl-1,4-dihydropyridazine-3-carboxamide] | 5.83 µM
0.0476 µM | COc1ccc(-n2nc(C(=O)NC3CCc4ccccc4NC3=O)c(=O)cc2C)cc1 (stereo not shown) [Example 65, 1-(4-methoxyphenyl)-6-methyl-4-oxo-N-(2-oxo-2,3,4,5-tetrahydro-1H-benzo[b]azepin-3-yl)-1,4-dihydropyridazine-3-carboxamide] | 0.124 µM
0.072 µM | Cc1c(C#N)c(=O)c(C(=O)NC2CCc3ccccc3N(C)C2=O)nn1-c1ccccc1 (stereo not shown) [Example 47, 5-Cyano-6-methyl-N-(1-methyl-2-oxo-2,3,4,5-tetrahydro-1H-benzo[b]azepin-3-yl)-4-oxo-1-phenyl-1,4-dihydropyridazine-3-carboxamide] | 0.086 µM
1.97 µM | Cc1ccc(-n2nc(C(=O)NC3CCc4ccccc4NC3=O)c(=O)cc2C)cn1 (stereo not shown) [Example 51, 6-methyl-1-(6-methylpyridin-3-yl)-4-oxo-N-(2-oxo-2,3,4,5-tetrahydro-1H-benzo[b]azepin-3-yl)-1,4-dihydro-pyridazine-3-carboxamide] | 1.7 µM
0.0431 µM | Cc1cccc(-n2nc(C(=O)NC3CCc4ccccc4NC3=O)c(=O)cc2C)c1 (stereo not shown) [Example 64, 6-methyl-4-oxo-N-(2-oxo-2,3,4,5-tetrahydro-1H-benzo[b]azepin-3-yl)-1-(m-tolyl)-1,4-dihydropyridazine-3-carboxamide] | 0.0778 µM
0.053 µM | Cc1cc(=O)c(C(=O)Nc2cccc(Cl)c2F)nn1-c1ccccc1F [Example 8, N-(3-chloro-2-fluorophenyl)-1-(2-fluorophenyl)-6-methyl-4-oxo-1,4-dihydropyridazine-3-carboxamide] | 0.172 µM
0.0309 µM | Cc1ccc(-n2nc(C(=O)NC3CCc4ccccc4NC3=O)c(=O)cc2C)cc1 (stereo not shown) [Example 71, 6-methyl-4-oxo-N-(2-oxo-2,3,4,5-tetrahydro-1H-benzo[b]azepin-3-yl)-1-(p-tolyl)-1,4-dihydropyridazine-3-carboxamide] | 0.0502 µM
